From patent US9012431B2, “Boron-containing small molecules as anti-inflammatory agents” (Anacor Pharmaceuticals, Inc., priority 2008, dated 2015)
pIC50: −log10 of the molar value. Structures can show the parent of a compound that is named as a salt.

What was measured:
TNF-α = test: Cytokine assay, TNF-α release from PBMC; type: cell-based; details: Homo sapiens, PBMC, 24 h, 1 μg/mL LPS, supernatant at 24 hours
Procedure, shortened: (§1)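 Cryopreserved human PBMC were thawed and resuspended in RPMI 1640 with 10% FBS. Test compounds, diluted from 10 mM DMSO stocks, were applied in triplicate at 10, 1, 0.1 and 0.01 μM, and cytokine release was measured.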

IL-2 = test: Cytokine assay, IL-2 release from PBMC; type: cell-based; details: human PBMC, 20 ug/mL PHA, supernatant at 24 hours
Procedure, shortened: as §1

IFN-γ = test: Cytokine assay, IFN-γ release from PBMC; type: cell-based; details: human PBMC, 20 ug/mL PHA, supernatant at 24 hours
Procedure, shortened: as §1

IL-5 = test: Cytokine assay, IL-5 release from PBMC; type: cell-based; details: human PBMC, 20 ug/mL PHA, supernatant at 48 hours
Procedure, shortened: as §1

IL-10 = test: Cytokine assay, IL-10 release from PBMC; type: cell-based; details: human PBMC, 20 ug/mL PHA, supernatant at 48 hours
Procedure, shortened: as §1

[1] = tested on: T1, PDE4 partially purified from human U-937 myeloid leukemia cells; test: PDE4 Assay (enzyme from U-937 cells, [3H]cAMP); type: biochemical; details: PDE4 from U-937 cells, Tris buffer pH 7.5, 20 minutes at 25° C.
T1 construct: PDE4 partially purified from human U-937 myeloid leukemia cells was used

[2] = tested on: CD-1 (Crl.) derived male mice; test: Phorbol Ester Induced Mouse Ear Edema Model; type: in vivo; details: topical, 6 h
Description: 1. In Vivo Anti-Inflammation Activity in Phorbol Ester Induced Mouse Ear Edema Model
[…] Dexamethasone (1 mg/ear×2) used as the positive control was administered topically to test animals using the same application schedule. Ear swelling was then measured by a Dyer model micrometer gauge at 6 hours after PMA application as an index of inflammation. Percent inhibition was calculated according to the formula: [(Ic−It)/Ic]×100%, where Ic and It refer to increase of ear thickness (mm) in control and treated mice, respectively.

[3] = 1 mg/ear × 2 topical, Acetone:Ethanol/1:1, ear swelling 6 hours after PMA

SMILES	pIC50 (TNF-α)	pIC50 (IL-2)	pIC50 (IFN-γ)	pIC50 (IL-5)	pIC50 (IL-10)	pIC50 [1]	inhibition in vivo at 1 mg [2, 3]	inhibition in vivo at 0.05 mg ([2]; 0.05 mg/ear × 2 topical, 95% Ethanol, ear swelling 6 hours after PMA)	inhibition in vivo at 0.17 mg ([2]; 0.17 mg/ear × 2 topical, 95% Ethanol, ear swelling 6 hours after PMA)	inhibition in vivo at 0.51 mg ([2]; 0.51 mg/ear × 2 topical, 95% Ethanol, ear swelling 6 hours after PMA)	inhibition in vivo at 1 mg ([2]; 1 mg/ear × 2 topical, 95% Ethanol, ear swelling 6 hours after PMA)	inhibition in vivo at 1 mg ([2]; 1 mg/ear topical, Acetone:Ethanol/1:1, ear swelling 6 hours after PMA)	inhibition in vivo at 1 mg ([2]; 1 mg/ear × 2 topical, vehicle not given, ear swelling 6 hours after PMA)
N#Cc1ccc(Oc2ccc3c(c2)COB3O)cc1O [D10, 5-(4-Cyano-3-hydroxyphenoxy)-1,3-dihydro-1-hydroxy-2,1-benzoxaborole]	> 6.00	5.00 to 5.40	5.00 to 5.40	5.00 to 5.40	5.40 to 6.00	5.40 to 6.00	60 to 90%	–	–	–	–	–	–
N#Cc1ccc(Oc2ccc3c(c2)COB3O)c(O)c1 [D14, 5-(4-Cyano-2-hydroxyphenoxy)-1,3-dihydro-1-hydroxy-2,1-benzoxaborole]	> 6.00	> 6.00	> 6.00	> 6.00	5.40 to 6.00	> 6.00	< 30%	< 30%	< 30%	< 30%	< 30%	–	–
N#Cc1ccc(Oc2ccc3c(c2)COB3O)c(CO)c1 [D24, 5-[4-Cyano-2-(hydroxymethyl)phenoxy]-1,3-dihydro-1-hydroxy-2,1-benzoxaborole]	5.40 to 6.00	–	–	–	–	–	60 to 90%	–	–	–	–	–	–
CN1CCN(C(=O)COc2cc(C#N)ccc2Oc2ccc3c(c2)COB3O)CC1 [D29, 4-(2-(5-cyano-2-(1-hydroxy-1,3-dihydrobenzo[c][1,2]oxaborol-5-yloxy)phenoxy)acetyl)-1-methylpiperazine hydrochloride]	> 6.00	> 6.00	> 6.00	> 6.00	< 5.00	> 6.00	< 30%	–	–	–	–	–	–
N#Cc1ccc(Oc2ccc3c(c2)COB3O)c(OCc2ccccn2)c1 [D31, 2-((5-cyano-2-(1-hydroxy-1,3-dihydrobenzo[c][1,2]oxaborol-5-yloxy)phenoxy)methyl)pyridine hydrochloride]	5.40 to 6.00	–	–	–	–	–	30 to 60%	–	–	–	–	–	–
N#Cc1ccc(Oc2ccc3c(c2)COB3O)c(CN2CCOCC2)c1 [D32, 4-(5-cyano-2-1-hydroxy-1,3-dihydrobenzo[c][1,2]oxaborol-5-yloxy)benzyl)morpholine hydrochloride]	> 6.00	> 6.00	> 6.00	> 6.00	> 6.00	> 6.00	< 30%	–	–	–	–	< 30%	–
O=Cc1ccc(Oc2ccc3c(c2)COB3O)nc1 [D69, 6-(1-Hydroxy-1,3-dihydrobenzo[c][1,2]oxaborol-5-yloxy)nicotinaldehyde]	5.40 to 6.00	5.40 to 6.00	5.40 to 6.00	–	–	> 6.00	–	–	–	–	–	–	30 to 60%
CC(C)S(=O)(=O)c1ccc(Oc2ccc3c(c2)COB3O)cc1 [D104, 5-(4-(isopropylsulfonyl)phenoxy)benzo[c][1,2]oxaborol-1 (3H)-ol]	5.40 to 6.00	5.40 to 6.00	5.40 to 6.00	5.00 to 5.40	5.00 to 5.40	> 6.00	–	–	–	–	–	–	–
CCS(=O)(=O)c1ccc(Oc2ccc3c(c2)COB3O)cc1 [D105, 5-(4-(ethylsulfonyl)phenoxy)benzo[c][1,2]oxaborol-1 (3H)-ol]	5.40 to 6.00	5.40 to 6.00	5.40 to 6.00	5.00 to 5.40	5.40 to 6.00	5.40 to 6.00	–	–	–	–	–	–	–
N#Cc1ccc(NCCO)nc1Oc1ccc2c(c1)COB2O [D106, 2-(1-Hydroxy-1,3-dihydro-benzo[c][1,2]oxaborol-5-yloxy)-6-(2-hydroxy-ethylamino)-nicotinonitrile]	> 6.00	> 6.00	> 6.00	> 6.00	5.00 to 5.40	> 6.00	–	–	–	–	–	–	–
COc1nc(Oc2ccc3c(c2)COB3O)ccc1C(N)=O [D112, 6-(1-Hydroxy-1,3-dihydro-benzo[c][1,2]oxaborol-5-yloxy)-2-methoxy-nicotinamide]	> 6.00	> 6.00	> 6.00	5.40 to 6.00	> 6.00	> 6.00	–	–	–	–	–	–	–
N#Cc1ccc(Oc2ccc3c(c2)COB3O)nc1NCCOCc1ccccc1 [D113, 2-(2-Benzyloxy-ethylamino)-6-(1-hydroxy-1,3-dihydro-benzo[c][1,2]oxaborol-5-yloxy)-nicotinonitrile]	> 6.00	> 6.00	> 6.00	> 6.00	5.00 to 5.40	> 6.00	–	–	–	–	–	–	–
CN(CCO)c1nc(Oc2ccc3c(c2)COB3O)ccc1C#N [D115, 6-(1-Hydroxy-1,3-dihydro-benzo[c][1,2]oxaborol-5-yloxy)-2-[(2-hydroxy-ethyl)-methyl-amino]-nicotinonitrile]	> 6.00	> 6.00	> 6.00	> 6.00	5.00 to 5.40	> 6.00	–	–	–	–	–	–	–
COc1nc(Oc2ccc3c(c2)COB3O)ncc1C#N [D116, 2-(1-Hydroxy-1,3-dihydro-benzo[c][1,2]oxaborol-5-yloxy)-4-methoxy-pyrimidine-5-carbonitrile]	> 6.00	> 6.00	> 6.00	> 6.00	5.40 to 6.00	> 6.00	–	–	–	–	–	–	–
N#Cc1cnc(Oc2ccc3c(c2)COB3O)cc1OCCOC1CCCCO1 (stereo not drawn) [D118, 6-(1-Hydroxy-1,3-dihydro-benzo[c][1,2]oxaborol-5-yloxy)-4-[2-(tetrahydro-pyran-2-yloxy)-ethoxy]-nicotinonitrile]	> 6.00	> 6.00	> 6.00	> 6.00	5.40 to 6.00	> 6.00	–	–	–	–	–	–	–
N#Cc1cnc(Oc2ccc3c(c2)COB3O)cc1OCCO [D119, 6-(1-Hydroxy-1,3-dihydro-benzo[c][1,2]oxaborol-5-yloxy)-4-(2-hydroxy-ethoxy)-nicotinonitrile]	> 6.00	> 6.00	> 6.00	> 6.00	> 6.00	> 6.00	–	–	–	–	–	–	–
CCOc1cc(Oc2ccc3c(c2)COB3O)ncc1C#N [D120, 4-Ethoxy-6-(1-hydroxy-1,3-dihydro-benzo[c][1,2]oxaborol-5-yloxy)-nicotinonitrile]	> 6.00	> 6.00	> 6.00	> 6.00	> 6.00	> 6.00	–	–	–	–	–	–	–
N#Cc1cnc(Oc2ccc3c(c2)COB3O)c(O)c1 [D123, 5-Hydroxy-6-(1-hydroxy-1,3-dihydro-benzo[c][1,2]oxaborol-5-yloxy)-nicotinonitrile]	> 6.00	> 6.00	> 6.00	5.40 to 6.00	5.40 to 6.00	> 6.00	–	–	–	–	–	–	–
N#Cc1ccc(Oc2ccc3c(c2)COB3O)nc1OCC(F)(F)F [D125, 6-(1-Hydroxy-1,3-dihydro-benzo[c][1,2]oxaborol-5-yloxy)-2-(2,2,2-trifluoro-ethoxy)-nicotinonitrile]	> 6.00	> 6.00	> 6.00	> 6.00	> 6.00	> 6.00	–	–	–	–	–	–	–
CC(=O)OCCOc1nc(Oc2ccc3c(c2)COB3O)ccc1C#N [D126, 2-[3-cyano-6-(1-hydroxy-1,3-dihydro-benzo[c][1,2]oxaborol-5-yloxy)-pyridin-2-yloxy]-ethyl acetate]	> 6.00	> 6.00	> 6.00	> 6.00	> 6.00	> 6.00	–	–	–	–	–	–	–
N#Cc1ccc(Oc2ccc3c(c2)COB3O)nc1OCC(F)F [D127, 2-(2,2-Difluoro-ethoxy)-6-(1-hydroxy-1,3-dihydro-benzo[c][1,2]oxaborol-5-yloxy)-nicotinonitrile]	> 6.00	> 6.00	> 6.00	> 6.00	> 6.00	> 6.00	–	–	–	–	–	–	–
CC(C)Oc1nc(Oc2ccc3c(c2)COB3O)ccc1C#N [D128, 6-(1-Hydroxy-1,3-dihydro-benzo[c][1,2]oxaborol-5-yloxy)-2-isopropoxy-nicotinonitrile]	> 6.00	> 6.00	> 6.00	> 6.00	> 6.00	> 6.00	–	–	–	–	–	–	–
N#Cc1ccc(Oc2ccc3c(c2)COB3O)nc1N [D130, 2-amino-6-(1-hydroxy-1,3-dihydro-benzo[c][1,2]oxaborol-5-yloxy)-nicotinonitrile]	> 6.00	> 6.00	> 6.00	> 6.00	> 6.00	> 6.00	–	–	–	–	–	–	–
CCCOc1nc(Oc2ccc3c(c2)COB3O)ccc1C#N [D131, 6-(1-Hydroxy-1,3-dihydro-benzo[c][1,2]oxaborol-5-yloxy)-2-propoxy-nicotinonitrile]	> 6.00	> 6.00	> 6.00	> 6.00	> 6.00	> 6.00	–	–	–	–	–	–	–
